Assays:
[1] = cited from earlier work
[2] = 2 g, q8 h via infusion for 3 h; cited from earlier work
[3] = tested on: Acinetobacter baumannii strains; test: Minimum inhibitory concentration (CLSI M07), Example 2, 20 strains; assay type: cell-based
Protocol: The minimum inhibitory concentration (MIC) was determined in accordance with the requirements of the Clinical and Laboratory Standards Institute (CLSI) M07 (for aerobic bacteria).
3.1 The compounds were diluted with DMSO up to 100 times of the highest concentration tested.
The steps of manual dilution are as follows (example): firstly, the compound or antibiotic was diluted to 100 times of the maximum final concentration tested, then 60 μL of compound mother liquor was added to the first column of the 96-well plate, and 30 μL of DMSO was added to each well in the second to the 12th column; 30 μL of the liquid was transferred from the first column to the second column. After being pipetted up and down to even, 30 μL was transferred to the third column, and was diluted in sequence at a 2-fold gradient for a total of 10 times; then 30 μL was removed from each well in the 11th column, then a compound solution diluted at 2-fold gradient was obtained and 1 μL was transferred to a 96-well test plate.
Aerobic bacteria: the strains were inoculated on MHA one day in advance and incubated overnight at 37° C. On the day of the assay, 5-6 single colonies were picked and suspended evenly in saline, and the bacterial concentration was adjusted to the turbidity of 0.5 McFarland standard (concentration is about 1×10^8 CFU/mL). The bacterial suspension was diluted at 200-fold with the corresponding liquid culture medium (Table 1), i.e., the bacterial concentration was ~5×10^5 CFU/ml, and then 100 μL of the liquid was transferred to a 96-well round bottom plate (the 96-well plate with compound prepared in 4.2, Echo method) to obtain the test plate. If the compound was manually diluted, then 99 μL of the solution was transferred into a 96-well round bottom plate. The 96-well round bottom plate obtained above was placed into an incubator at 37° C. and 85% humidity to incubate for 20 h.

CC1(C)[C@H](C(=O)O)N2C(=O)C[C@H]2S1(=O)=O [Sulbactam, (2S, 5R)-3,3-dimethyl-7-oxo-4-thia-1-azabicyclo [3.2.0] heptane-2-carboxylic acid 4,4-dioxide]
Protein binding [1]: approximately 5.2% | Part of the dosing interval with plasma concentration above 2 μg/mL [2]: 44% | Part of the dosing interval with plasma concentration above 4 μg/mL [2]: 19% | MIC of the strain BAA-1795 (component in the combination) ([3]; strain BAA-1795, sulbactam/avibactam 4:1, concentration of the named component): 8 µg/mL | MIC90 of the single component in the combination ([3]; sulbactam sodium:avibactam sodium = 4:1, concentration of the named component): 16 µg/mL | MIC50 of the single component in the combination ([3]; sulbactam sodium:avibactam sodium = 4:1, concentration of the named component, Examples 1 and 2): 8 µg/mL
